Measurements: US20060177839A1, “Method for modulating the evolution of a polypeptide encoded by a nucleic acid sequence” (priority 2004, published 2006)

Test system: dfrB1 WT gene (dehydrofolate reductase conferring resistance to trimethoprim)
Conditions: resistance conferred by dfrB1 WT gene

COc1cc(Cc2cnc(N)nc2N)cc(OC)c1OC [trimethoprim]
MIC: 512 micg/ml
